How the values were obtained:
[1] = test system: sperms of male C57/B6 mice (fertilization function of a mammal sperm); assay: Semination by in vitro fertilization with sperms precultured in test culture medium; two-cell egg formation; assay type: cell-based

| SMILES | melting point [°C] | further results |
| --- | --- | --- |
| O=C(CC(C(=O)O)c1c[nH]c2ccc(F)cc12)c1ccc(F)cc1F (centres unmarked) | 207 to 208 |  |
| CCCOc1ccc2[nH]cc(CC(=O)O)c2c1 [Compound #38, 5-(1-Propoxy)-3-indoleacetic Acid] | 133.6 to 136.8 |  |
| O=C(CC(C(=O)O)c1c[nH]c2ccc(Cl)cc12)c1ccc(F)cc1F (centres unmarked) [(3-2), 2-(5-chloro-1H-indol-3-yl)-4-(2,4-difluorophenyl)-4-oxo-butanoic Acid] | 236 to 239 |  |
| CCCCCOc1ccc2cccc(CC(=O)O)c2c1 [Compound #34, α-(7-Pentoxy-1-naphthalenyl)-acetic Acid] | 104 to 106 |  |
| CCCCOc1ccc2[nH]cc(CC(=O)O)c2c1 [Compound #39, 5-(1-Butoxy)-3-indoleacetic Acid] | 137.8 to 141.1 |  |
| O=C(CC(C(=O)O)c1c[nH]c2ccccc12)c1ccc(F)cc1F (centres unmarked) [Compound #5, 4-(2,4-Difluorophenyl)-2-(1H-indol-3-yl)-4-oxo-butanoic Acid] |  | The number of two-cell eggs ([1]; sperms precultured 1 hour in TYH culture medium containing 1 μM compound #5, 11 ova): 11; Fertilization rate (%) ([1]; sperms precultured 1 hour in TYH culture medium containing 1 μM compound #5, two-cell eggs observed 24 to 28 hours after semination, control without compound 40%): 100%; The number of two-cell eggs ([1]; sperms precultured 1 hour in TYH culture medium containing 10 μM FCCP and 1 μM compound #5, 10 ova): 5; Fertilization rate (%) ([1]; sperms precultured 1 hour in TYH culture medium containing 10 μM FCCP and 1 μM compound #5, FCCP alone 30%): 50% |
| CCCCOc1ccc2cccc(CC(=O)O)c2c1 [Compound #33, α-(7-Butoxy-1-naphthalenyl)-acetic Acid] | 102 to 104 |  |
| CCOc1ccc2[nH]cc(CC(=O)O)c2c1 [Compound #37, 5-Ethoxy-3-indoleacetic Acid] | 86 to 92.7 |  |
| N#CC(C#N)=NNc1ccc(OC(F)(F)F)cc1 [FCCP, carbonyl cyanide-p-trifluoromethoxyphenylhydrazone, reference compound] |  | Fertilization rate (%) ([1]; sperms precultured 1 hour in TYH culture medium containing 10 μM FCCP (uncoupler), control without FCCP 47.4%): 30%; The number of two-cell eggs ([1]; sperms precultured 1 hour in TYH culture medium containing 10 μM FCCP, 10 ova): 3 |

Further lines, with some results ahead:

| melting point [°C] | SMILES | further results |
| --- | --- | --- |
| 149 to 150 | O=C(CC(C(=O)O)c1c[nH]c2ccccc12)c1ccccc1 (centres unmarked) [Compound #20, 4-Phenyl-2-(1H-indol-3-yl)-4-oxo-butanoic Acid] |  |
| 192 to 193 | Cn1cc(C(CC(=O)c2ccc(F)cc2F)C(=O)O)c2ccccc21 (centres unmarked) [(6-1), 4-(2,4-difluorophenyl)-2-(1-methyl-1H-indol-3-yl)-4-oxo-butanoic Acid] |  |
| 205 to 206 | COc1ccc2[nH]cc(C(CC(=O)c3ccc(F)cc3F)C(=O)O)c2c1 (centres unmarked) [(3-4), 4-(2,4-difluorophenyl)-2-(5-methoxy-1H-indol-3-yl)-4-oxo-butanoic Acid] |  |
| 139 to 141 | CCCn1cc(C(CC(=O)c2ccc(C)cc2C)C(=O)O)c2ccccc21 (centres unmarked) [Compound #6, 4-(2,4-Dimethylphenyl)-2-(1-propyl-1H-indol-3-yl)-4-oxo-butanoic Acid] |  |
| 200 to 202 | Cc1ccc2[nH]cc(C(CC(=O)c3ccc(F)cc3F)C(=O)O)c2c1 (centres unmarked) [(3-3), 4-(2,4-difluorophenyl)-2-(5-methyl-1H-indol-3-yl)-4-oxo-butanoic Acid] |  |
| 177 to 178 | O=C(CC(C(=O)O)c1c[nH]c2cc(OCc3ccccc3)ccc12)c1ccc(F)cc1F (centres unmarked) [(4-2), 2-(6-benzyloxy-1H-indol-3-yl)-4-(2,4-difluorophenyl)-4-oxo-butanoic Acid] |  |
| 181 to 183 | COc1cccc2c(C(CC(=O)c3ccc(F)cc3F)C(=O)O)c[nH]c12 (centres unmarked) [(5-2), 4-(2,4-difluorophenyl)-2-(7-methoxy-1H-indol-3-yl)-4-oxo-butanoic Acid] |  |
| 210 to 214 | O=C(CC(C(=O)O)c1c[nH]c2cc(F)ccc12)c1ccc(F)cc1F (centres unmarked) [Compound (4-1), 4-(2,4-difluorophenyl)-2-(6-fluoro-1H-indol-3-yl)-4-oxo-butanoic Acid] |  |
| 225 to 227 | O=C(CC(C(=O)O)c1c[nH]c2c(Cl)cccc12)c1ccc(F)cc1F (centres unmarked) [(5-1), 2-(7-chloro-1H-indol-3-yl)-4-(2,4-difluorophenyl)-4-oxo-butanoic Acid] |  |
| 203 to 204 | O=C(CC(C(=O)O)c1c[nH]c2cccc(Cl)c12)c1ccc(F)cc1F (centres unmarked) [(2-1), 2-(4-chloro-1H-indol-3-yl)-4-(2,4-difluorophenyl)-4-oxo-butanoic Acid] |  |
